Data as given in patent publication US10821115B2, “Compounds that inhibit Mcl-1 protein” (priority 2017, dated 2020).
Read-outs that look alike come from different tables or passages of the source.

Key:
[1] = system: human multiple myeloma cell line, OPM-2; test: Cell viability assay (OPM-2 10 FBS), CellTiter-Glo; format: cell-based
Procedure, shortened: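 Steps: plate cells at 3000/well in 10% FBS growth medium, add serially diluted compound, incubate 16 h at 37 °C with 5% CO2, add detection reagent and read luminescence after 25 min. A 4-parameter logistic model gives IC50.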

[2] = biological target: recombinant human Mcl-1 (residues 171-327) / Bim interaction (Homo sapiens (Human), UniProt Q07820); test: biochemical; format: binding; settings: read-out: Mcl-1 HTRF IC50
Sequence of recombinant human Mcl-1 (residues 171-327) / Bim interaction (Q07820 171-327): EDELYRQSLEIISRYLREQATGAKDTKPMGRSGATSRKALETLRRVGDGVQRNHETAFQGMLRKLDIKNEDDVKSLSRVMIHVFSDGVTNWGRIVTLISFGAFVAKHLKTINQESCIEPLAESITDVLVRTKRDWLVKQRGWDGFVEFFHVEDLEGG

[3] = Homo sapiens, OPM-2, 16 h, read-out: OPM-2 10% FBS IC50 IP, OPM-2 cells, 10% FBS, 16 h incubation
[4] = 0.1 nM Mcl-1(171-327), 0.05 nM biotin-Bim (51-76)
[5] = Homo sapiens, OPM-2, 16 h, read-out: OPM-2 10% FBS IC50 IP, OPM-2 cells, 10% FBS, 16 h, CellTiter-Glo
[6] = TR-FRET, Mcl-1(171-327) / biotin-Bim (51-76)

Structure (SMILES) | IC50 [1, 3] [nM] | IC50 [2, 4] [nM] | IC50 [1, 5] [nM] | IC50 [2, 6] [nM] | IC50 ([1]; read-out: OPM-2 10% FBS IC50 IP, OPM-2 cells, 10% FBS, 16 h, CellTiter-Glo) [nM]
COCCN(C)C1CN(C[C@]2(OC)/C=C/C[C@H](C)[C@@H](C)S(=O)(=O)NC(=O)c3ccc4c(c3)N(C[C@@H]3CC[C@H]32)C[C@@]2(CCCc3cc(Cl)ccc32)CO4)C1 [Example 260, (1S,3′R,6′R,7′S,8′E,11′S,12′R)-6-chloro-7′-methoxy-7′-((3-((2-methoxyethyl)(methyl)amino)-1-azetidinyl)methyl)-11′,12′-dimethyl-3,4-dihydro-2H,15′H-spiro[naphthalene-1,22′-[20]oxa[13]thia[1,14]diazatetracyclo [14.7.2.0~3,6~.0~19,24~]pentacosa[8,16,18,24]tetraen]-15′-one 13′,13′-dioxide] | 103 | 0.083 | – | – | –
C[C@@H]1[C@@H](C)C/C=C/[C@@](O)(c2ccccn2)[C@@H]2CC[C@H]2CN2C[C@@]3(CCCc4cc(Cl)ccc43)COc3ccc(cc32)C(=O)NS1(=O)=O (single isomer, unassigned) [Example 100181] | – | – | 226 | 0.537 | –
CO[C@]1(Cc2noc(C)c2C)/C=C/C[C@H](C)[C@@H](C)S(=O)(=O)NC(=O)c2ccc3c(c2)N(C[C@@H]2CC[C@H]21)C[C@@]1(CCCc2cc(Cl)ccc21)CO3 [Example 100574, (1S,3′R,6′R,7′R,8′E,11′S,12′R)-6-chloro-7′-((4,5-dimethyl-1,2-oxazol-3-yl)methyl)-7′-methoxy-11′,12′-dimethyl-3,4-dihydro-2H,15′H-spiro[naphthalene-1,22′-[20]oxa[13]thia[1,14]diazatetracyclo [14.7.2.0~3,6~.0~19,24~]pentacosa[8,16,18,24]tetraen]-15′-one 13′,13′-dioxide] | – | – | 4320 | 1.42 | –
CO[C@]1(CN(C)CCN2CCOCC2)/C=C/C[C@H](C)[C@@H](C)S(=O)(=O)NC(=O)c2ccc3c(c2)N(C[C@@H]2CC[C@H]21)C[C@@]1(CCCc2cc(Cl)ccc21)CO3 [Example 37, (1S,3′R,6′R,7′R,8′E,11′S,12′R)-6-chloro-7′-methoxy-11′,12′-dimethyl-7′-((methyl(2-(4-morpholinyl)ethyl)amino)methyl)-3,4-dihydro-2H,15′H-spiro[naphthalene-1,22′-[20]oxa[13]thia[1,14]diazatetracyclo [14.7.2.0~3,6~.0~19,24~]pentacosa[8,16,18,24]tetraen]-15′-one 13′,13′-dioxide] | 643 | 0.615 | – | – | –
C[C@@H]1[C@@H](C)C/C=C/[C@@](O)(c2cccnn2)[C@@H]2CC[C@H]2CN2C[C@@]3(CCCc4cc(Cl)ccc43)COc3ccc(cc32)C(=O)NS1(=O)=O (single isomer, unassigned) [Example 100348] | – | – | 125 | 0.135 | –
C[C@@H]1[C@@H](C)C/C=C/[C@](O)(c2cncnc2)[C@@H]2CC[C@H]2CN2C[C@@]3(CCCc4cc(Cl)ccc43)COc3ccc(cc32)C(=O)NS1(=O)=O [Example 100410, (1S,3′R,6′R,7′R,8′E,11′S,12′R)-6-chloro-7′-hydroxy-11′,12′-dimethyl-7′-(5-pyrimidinyl)-3,4-dihydro-2H,15′H-spiro[naphthalene-1,22′-[20]oxa[13]thia[1,14]diazatetracyclo [14.7.2.0~3,6~.0~19,24~]pentacosa[8,16,18,24]tetraen]-15′-one 13′,13′-dioxide] | – | – | 297 | 0.127 | –
CO[C@@]1(CN2CC3(C2)CS(=O)(=O)C3)/C=C/C[C@H](C)[C@@H](C)S(=O)(=O)NC(=O)c2ccc3c(c2)N(C[C@@H]2CC[C@H]21)C[C@@]1(CCCc2cc(Cl)ccc21)CO3 [Example 202, (1S,3′R,6′R,7′S,8′E,11′S,12′R)-6-chloro-7′-((2,2-dioxido-2-thia-6-azaspiro[3 .3]hept-6-yl)methyl)-7′-methoxy-11′,12′-dimethyl-3,4-dihydro-2H,15′H-spiro[naphthalene-1,22′-[20]oxa[13]thia[1,14]diazatetracyclo [14.7.2.0~3,6~.0~19,24~]pentacosa[8,16,18,24]tetraen]-15′-one 13′,13′-dioxide] | 142 | 0.058 | – | – | –
C/C=C/C[C@]1(OC)/C=C/C[C@H](C)[C@@H](C)S(=O)(=O)NC(=O)c2ccc3c(c2)N(C[C@@H]2CC[C@H]21)C[C@@]1(CCCc2cc(Cl)ccc21)CO3 [Example 100438, (1S,3′R,6′R,7′S,8′E,11′S,12′R)-7′-((2E)-2-buten-1-yl)-6-chloro-7′-methoxy-11′,12′-dimethyl-3,4-dihydro-2H,15′H-spiro[naphthalene-1,22′-[20]oxa[13]thia[1,14]diazatetracyclo [14.7.2.0~3,6~.0~19,24~]pentacosa[8,16,18,24]tetraen]-15′-one 13′,13′-dioxide] | – | – | 547 | 0.169 | –
CC[C@@H]1CC/C=C/[C@](COCCN2CCOCC2)(OC)[C@@H]2CC[C@H]2CN2C[C@@]3(CCCc4cc(Cl)ccc43)COc3ccc(cc32)C(=O)NS1(=O)=O (single isomer, unassigned) [Example 100597] | – | – | 577 | 0.263 | –
Cc1ncoc1C[C@]1(O)/C=C/C[C@H](C)[C@@H](C)S(=O)(=O)NC(=O)c2ccc3c(c2)N(C[C@@H]2CC[C@H]21)C[C@@]1(CCCc2cc(Cl)ccc21)CO3 [Example 100572, (1S,3′R,6′R,7′S,8′E,11′S,12′R)-6-chloro-7′-hydroxy-11′,12′-dimethyl-7′-((4-methyl-1,3-oxazol-5-yl)methyl)-3,4-dihydro-2H,15′H-spiro[naphthalene-1,22′-[20]oxa[13]thia[1,14]diazatetracyclo [14.7.2.0~3,6~.0~19,24~]pentacosa[8,16,18,24]tetraen]-15′-one 13′,13′-dioxide] | – | – | 1160 | 0.174 | –
C[C@@H]1[C@@H](C)C/C=C/[C@@](O)(CC(=O)N2CCN3CCOC[C@@H]3C2)[C@@H]2CC[C@H]2CN2C[C@@]3(CCCc4cc(Cl)ccc43)COc3ccc(cc32)C(=O)NS1(=O)=O [Example 100305, (1S,3′R,6′R,7′S,8′E,11′S,12′R)-6-chloro-7′-(2-((9aS)-hexahydropyrazino[2,1-c][1,4]oxazin-8(1H)-yl)-2-oxoethyl)-7′-hydroxy-11′,12′-dimethyl-3,4-dihydro-2H,15′H-spiro[naphthalene-1,22′-[20]oxa[13]thia[1,14]diazatetracyclo [14.7.2.0~3,6~.0~19,24~]pentacosa[8,16,18,24]tetraen]-15′-one 13′,13′-dioxide] | – | – | 1140 | 0.473 | –
C=CC[C@]1(O)CCC[C@H](C)[C@@H](C)S(=O)(=O)NC(=O)c2ccc3c(c2)N(C[C@@H]2CC[C@H]21)C[C@@]1(CCCc2cc(Cl)ccc21)CO3 (single isomer, unassigned) [Example 100266] | – | – | – | 0.292 | 571
CO[C@@]1(CN2CCN(c3nccs3)CC2)/C=C/C[C@H](C)[C@@H](C)S(=O)(=O)NC(=O)c2ccc3c(c2)N(C[C@@H]2CC[C@H]21)C[C@@]1(CCCc2cc(Cl)ccc21)CO3 [Example 255, (1S,3′R,6′R,7′S,8′E,11′S,12′R)-6-chloro-7′-methoxy-11′,12′-dimethyl-7′-((4-(1,3-thiazol-2-yl)-1-piperazinyl)methyl)-3,4-dihydro-2H,15′H-spiro[naphthalene-1,22′-[20]oxa[13]thia[1,14]diazatetracyclo [14.7.2.0~3,6~.0~19,24~]pentacosa[8,16,18,24]tetraen]-15′-one 13′,13′-dioxide] | 1480 | 1.74 | – | – | –
CCO[C@]1(CN2CCN(C3COC3)CC2)/C=C/[C@H](C)[C@H](C)CS(=O)(=O)NC(=O)c2ccc3c(c2)N(C[C@@H]2CC[C@H]21)C[C@@]1(CCCc2cc(Cl)ccc21)CO3 [Example 166, (1S,3′R,6′R,7′R,8′E,10′S,11′S)-6-chloro-7′-ethoxy-10′,11′-dimethyl-7′-((4-(3-oxetanyl)-1-piperazinyl)methyl)-3,4-dihydro-2H,15′H-spiro[naphthalene-1,22′-[20]oxa[13]thia[1,14]diazatetracyclo [14.7.2.0~3,6~.0~19,24~]pentacosa[8,16,18,24]tetraen]-15′-one 13′,13′-dioxide] | 50 | 0.107 | – | – | –
C[C@@H]1[C@@H](C)C/C=C/[C@@](O)(c2ncnn2C)C2CC[C@H]2CN2C[C@@]3(CCCc4cc(Cl)ccc43)COc3ccc(cc32)C(=O)NS1(=O)=O (stereo in doubt) [Example 100222, (1S,3′R,6′S,7′S,8′E,11′S,12′R)-6-chloro-7′-hydroxy-11′,12′-dimethyl-7′-(1-methyl-1H-1,2,4-triazol-5-yl)-3,4-dihydro-2H,15′H-spiro[naphthalene-1,22′-[20]oxa[13]thia[1,14]diazatetracyclo [14.7.2.0~3,6~.0~19,24~]pentacosa[8,16,18,24]tetraen]-15′-one 13′,13′-dioxide] | – | – | 222 | 0.182 | –
CCO[C@]1(CN2CCN(CCOC)CC2)/C=C/C[C@H](C)[C@@H](C)S(=O)(=O)NC(=O)c2ccc3c(c2)N(C[C@@H]2CC[C@H]21)C[C@@]1(CCCc2cc(Cl)ccc21)CO3 [Example 123, (1S,3′R,6′R,7′R,8′E,11′S,12′R)-6-chloro-7′-ethoxy-7′-((4-(2-methoxyethyl)-1-piperazinyl)methyl)-11′,12′-dimethyl-3,4-dihydro-2H,15′H-spiro[naphthalene-1,22′-[20]oxa[13]thia[1,14]diazatetracyclo [14.7.2.0~3,6~.0~19,24~]pentacosa[8,16,18,24]tetraen]-15′-one 13′,13′-dioxide] | 228 | 0.205 | – | – | –
